Assay [1] addresses Recombinant human Cbl-b (aa 36-427) (Homo sapiens, UniProt Q13191). The experiment in a line: Cbl-b Biochemical Assay (TR-FRET). The following applies: read-out: TR-FRET hCbl-b IC50. (In general: Time-resolved FRET reads energy transfer from a long-lived donor to a nearby acceptor.)
The subject of assay [2] is Jurkat (clone E6-1) cells with NFAT luciferase reporter. The experiment in a line: Jurkat reporter assay (NFAT Luciferase). It is filed as cell-based. The conditions noted are these: Homo sapiens; Jurkat NFAT luciferase reporter cells, anti-CD3 stimulation, 6 hr; read-out: Jurkat NFAT EC50.
In assay [3] the target is T1, Recombinant human c-Cbl (aa 47-435) (Homo sapiens, UniProt P22681).
T1 sequence (P22681 47-435): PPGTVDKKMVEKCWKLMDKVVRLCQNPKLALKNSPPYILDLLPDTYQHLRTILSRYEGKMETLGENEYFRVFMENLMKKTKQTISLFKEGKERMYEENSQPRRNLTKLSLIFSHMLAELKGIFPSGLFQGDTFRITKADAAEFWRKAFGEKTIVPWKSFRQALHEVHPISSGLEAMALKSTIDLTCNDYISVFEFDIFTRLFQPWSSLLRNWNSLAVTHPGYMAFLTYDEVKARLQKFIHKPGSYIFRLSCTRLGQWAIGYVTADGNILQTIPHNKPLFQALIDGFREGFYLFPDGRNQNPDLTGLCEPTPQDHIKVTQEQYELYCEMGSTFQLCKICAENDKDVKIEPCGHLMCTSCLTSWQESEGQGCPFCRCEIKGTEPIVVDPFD
Put plainly: c-Cbl Biochemical Assay (TR-FRET). The following applies: hc-Cbl Biochemical Assay (TR-FRET); read-out: TR-FRET hcCbl IC50.

Molecules are shown by their SMILES.

Chain of Recombinant human Cbl-b (aa 36-427) (Q13191 36-427): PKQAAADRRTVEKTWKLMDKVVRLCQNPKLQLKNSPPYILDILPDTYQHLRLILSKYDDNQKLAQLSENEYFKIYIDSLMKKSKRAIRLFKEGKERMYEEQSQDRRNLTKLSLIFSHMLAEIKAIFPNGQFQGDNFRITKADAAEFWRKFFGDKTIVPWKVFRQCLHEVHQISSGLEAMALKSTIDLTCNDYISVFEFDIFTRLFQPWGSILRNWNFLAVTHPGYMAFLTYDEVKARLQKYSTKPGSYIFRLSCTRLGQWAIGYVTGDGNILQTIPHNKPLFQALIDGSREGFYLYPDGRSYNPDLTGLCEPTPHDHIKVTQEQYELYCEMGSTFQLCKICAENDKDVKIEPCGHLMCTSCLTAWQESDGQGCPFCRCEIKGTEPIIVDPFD

One may read the IC50 as the midpoint of a concentration-inhibition curve. Usually EC50 stands for the midpoint of the concentration-response curve. `Cn1cnnc1-c1cc(F)ccc1-c1cc(-c2nc3cc(CN[C@@H]4CCC[C@@H]4O)ccc3o2)nc(C2CC2)c1` [AEH-2, (1S,2R)-2-{[(2-{6-Cyclopropyl-4-[4-fluoro-2-(4-methyl-1,2,4-triazol-3-yl)phenyl]pyridin-2-yl}-1,3-benzoxazol-5-yl)methyl]amino}cyclopentan-1-ol]: the IC50 in assay [1] and in assay [3] was less than 200 nM throughout. Also, the EC50 in assay [2] is less than 200 nM.

Consider `COc1cc(CN[C@@H]2CCC[C@@H]2OC)cc2nc(-c3cccc(-c4ccc(F)cc4-c4nncn4C)c3)oc12` [FQ-1, (1R,2S)—N-((2-(4′-Fluoro-2′-(4-methyl-4H-1,2,4-triazol-3-yl)-[1,1′-biphenyl]-3-yl)-7-methoxybenzo[d]oxazol-5-yl)methyl)-2-methoxycyclopentan-1-amine], for which the IC50 in assay [1] and in assay [3] was 200 to 1000 nM each time. Also, the EC50 in assay [2] was in the range of 1000 to 10000 nM.

Consider `Cc1cc(CO)cc2nc(-c3cccc(-c4ccc(F)cc4-c4nncn4C)c3)oc12` [FE-3, (2-(4′-Fluoro-2′-(4-methyl-4H-1,2,4-triazol-3-yl)-[1,1′-biphenyl]-3-yl)-7-methylbenzo[d]oxazol-5-yl)methanol], for which the IC50 in assay [1] and in assay [3] was 1000 to 10000 nM in each case. In assay [2], the EC50 was in the range of 10000 to 50000 nM.

Consider `Cn1cnnc1-c1cc(F)ccc1-c1cc(-c2nc3cc(CNCC4(O)CCC4)cc(F)c3o2)nc(C2CC2)c1` [AFI-1, 1-({[(2-{6-Cyclopropyl-4-[4-fluoro-2-(4-methyl-1,2,4-triazol-3-yl)phenyl]pyridin-2-yl}-7-fluoro-1,3-benzoxazol-5-yl)methyl]amino}methyl)cyclobutan-1-ol], for which the IC50 in assay [1] and in assay [3] was less than 200 nM in each case. The EC50 in assay [2] was less than 200 nM.

With `CO[C@@H]1CCCN(Cc2cc(C(F)(F)F)c3oc(-c4cccc(-c5ccc(F)cc5-c5nncn5C)c4)nc3c2)C1` [JR-2, (R)-2-(4′-Fluoro-2′-(4-methyl-4H-1,2,4-triazol-3-yl)-[1,1′-biphenyl]-3-yl)-5-((3-methoxypiperidin-1-yl)methyl)-7-(trifluoromethyl)benzo[d]oxazole], the results for the IC50 in assay [1] and in assay [3] were less than 200 nM and 200 to 1000 nM, respectively. The EC50 in assay [2] is 200 to 1000 nM.

Take `CN(C)CC(=O)NCc1cc(C(F)(F)F)c2oc(-c3cccc(-c4ccc(F)cc4-c4nncn4C)c3)nc2c1` [HC-2, 2-(Dimethylamino)-N-((2-(4′-fluoro-2′-(4-methyl-4H-1,2,4-triazol-3-yl)-[1,1′-biphenyl]-3-yl)-7-(trifluoromethyl)benzo[d]oxazol-5-yl)methyl)acetamide]: the IC50 in assay [1] was less than 200 nM; in assay [3], 200 to 1000 nM. The EC50 in assay [2] lay within 1000 to 10000 nM.

On to `CC(=O)NCCNCc1cc(C(F)(F)F)c2oc(-c3cccc(-c4ccc(F)cc4-c4nncn4C)c3)nc2c1` [HD-2, N-(2-(((2-(4′-Fluoro-2′-(4-methyl-4H-1,2,4-triazol-3-yl)-[1,1′-biphenyl]-3-yl)-7-(trifluoromethyl)benzo[d]oxazol-5-yl)methyl)amino)ethyl)acetamide], for which the IC50 in assay [1] and in assay [3] was less than 200 nM each time. For the same compound, the EC50 in assay [2] was 200 to 1000 nM.

Regarding `COCCNCc1cc2nc(-c3cccc(-c4ccc(F)cc4-c4nncn4C)c3)oc2c(F)c1F` [IY-1, N-((6,7-Difluoro-2-(4′-fluoro-2′-(4-methyl-4H-1,2,4-triazol-3-yl)-[1,1′-biphenyl]-3-yl)benzo[d]oxazol-5-yl)methyl)-2-methoxyethan-1-amine], the IC50 in assay [1] and in assay [3] was less than 200 nM each time. In addition, the EC50 in assay [2] is less than 200 nM.

`COC1(CN[C@H](C)c2cc(F)c3oc(-c4cc(-c5ccc(F)cc5-c5nncn5C)cc(C5CC5)n4)nc3c2)CCC1` [AFT-1, [(1R)-1-(2-{6-Cyclopropyl-4-[4-fluoro-2-(4-methyl-1,2,4-triazol-3-yl)phenyl]pyridin-2-yl}-7-fluoro-1,3-benzoxazol-5-yl)ethyl][(1-methoxycyclobutyl)methyl]amine]: the IC50 is less than 200 nM in assay [1] and 200 to 1000 nM in assay [3]. The EC50 in assay [2] lay within 1000 to 10000 nM.

For `Cn1cnnc1-c1cc(F)ccc1-c1cccc(-c2nc3cc(CNCC(C)(C)O)c(F)c(F)c3o2)c1` [JD-1, 1-(((6,7-Difluoro-2-(4′-fluoro-2′-(4-methyl-4H-1,2,4-triazol-3-yl)-[1,1′-biphenyl]-3-yl)benzo[d]oxazol-5-yl)methyl)amino)-2-methylpropan-2-ol], the IC50 in assay [1] and in assay [3] was less than 200 nM throughout. Also, in assay [2], the concentration giving a half-maximal response (EC50) is less than 200 nM.

Consider `Cn1cnnc1-c1cc(Cl)ccc1-c1cccc(-c2nc3cc(CN[C@@H]4CCC[C@@H]4O)ccc3o2)c1` [ADL-2, (1S,2R)-2-[({2-[4′-Chloro-2′-(4-methyl-1,2,4-triazol-3-yl)-[1,1′-biphenyl]-3-yl]-1,3-benzoxazol-5-yl}methyl)amino]cyclopentan-1-ol], for which the IC50 in assay [1] and in assay [3] was less than 200 nM in each case. Further, in assay [2], the EC50 was less than 200 nM.

In the case of `CO[C@H]1CCC[C@H]1N(C)Cc1cc(C(F)(F)F)c2oc(-c3cccc(-c4ccc(F)cc4-c4nncn4C)c3)nc2c1` [CN-5, (1R,2S)—N-((2-(4′-Fluoro-2′-(4-methyl-4H-1,2,4-triazol-3-yl)-[1,1′-biphenyl]-3-yl)-7-(trifluoromethyl)benzo[d]oxazol-5-yl)methyl)-2-methoxy-N-methylcyclopentan-1-amine], the IC50 in assay [1] is less than 200 nM; in assay [3], 200 to 1000 nM. Besides, the EC50 in assay [2] lay in the range of 200 to 1000 nM.

Turning to `C[C@H]1CCCN(Cc2cc(C(F)(F)F)c3oc(-c4cccc(-c5ccccc5-c5nncn5C)c4)nc3c2)C1` [Example Q-3, (S)-2-(2′-(4-Methyl-4H-1,2,4-triazol-3-yl)-[1,1′-biphenyl]-3-yl)-5-((3-methylpiperidin-1-yl)methyl)-7-(trifluoromethyl)benzo[d]oxazole], the figures for the IC50 in assay [1] and in assay [3] were 200 to 1000 nM and 1000 to 10000 nM, respectively. Moreover, in assay [2], the EC50 lay within 1000 to 10000 nM.

For the compound `COC[C@H](C)NCc1cc(F)c2oc(-c3cc(-c4ccc(F)cc4-c4nncn4C)cc(C4CC4)n3)nc2c1` [AFU-1, [(2-{6-Cyclopropyl-4-[4-fluoro-2-(4-methyl-1,2,4-triazol-3-yl)phenyl]pyridin-2-yl}-7-fluoro-1,3-benzoxazol-5-yl)methyl][(2S)-1-methoxypropan-2-yl]amine], the IC50 in assay [1] and in assay [3] was less than 200 nM each time. Moreover, the EC50 in assay [2] is less than 200 nM.

Consider `Cn1cnnc1-c1cc(F)ccc1-c1cccc(-c2nc3cc(CN[C@@H]4CC[C@@H]4O)cc(C(F)(F)F)c3o2)c1` [DU-2, (1S,2R)-2-(((2-(4′-Fluoro-2′-(4-methyl-4H-1,2,4-triazol-3-yl)-[1,1′-biphenyl]-3-yl)-7-(trifluoromethyl)benzo[d]oxazol-5-yl)methyl)amino)cyclobutan-1-ol], for which the IC50 in assay [1] and in assay [3] was less than 200 nM throughout. Further, in assay [2], the EC50 is less than 200 nM.

Turning to `COc1cccc2oc(-c3cccc(-c4ccc(F)cc4-c4nncn4C)c3)nc12` [FH-2, 2-(4′-Fluoro-2′-(4-methyl-4H-1,2,4-triazol-3-yl)-[1,1′-biphenyl]-3-yl)-4-methoxybenzo[d]oxazole], the IC50 in assay [1] and in assay [3] was 1000 to 10000 nM each time. Moreover, the EC50 in assay [2] fell in the range of 10000 to 50000 nM.

Source of the values: US20250163038A1, “CBL-B MODULATORS AND USES THEREOF” (Nimbus Clio, Inc., priority 2021, published 2025).
